Results taken from patent USRE39921E1, “Chemical compounds” (SmithKline Beecham Corporation, priority 1999, dated 2007).
Structures can show the parent of a compound that is named as a salt.

What was measured:
[1] = target: T1, recombinant human NK1 receptors (Homo sapiens, UniProt P25103); assay: NK1-receptor binding affinity: displacement of [3H]-substance P from CHO cell membranes; settings: average of at least two determinations, [3H]-substance P displacement, read-out: pki (negative logarithm of the inhibition constant Ki of displacer ligands) (converted)
T1 construct: expressed in transfected cells; host or cells: Chinese Hamster Ovary (CHO) cells, membrane preparation
T1 sequence (P25103 whole entry): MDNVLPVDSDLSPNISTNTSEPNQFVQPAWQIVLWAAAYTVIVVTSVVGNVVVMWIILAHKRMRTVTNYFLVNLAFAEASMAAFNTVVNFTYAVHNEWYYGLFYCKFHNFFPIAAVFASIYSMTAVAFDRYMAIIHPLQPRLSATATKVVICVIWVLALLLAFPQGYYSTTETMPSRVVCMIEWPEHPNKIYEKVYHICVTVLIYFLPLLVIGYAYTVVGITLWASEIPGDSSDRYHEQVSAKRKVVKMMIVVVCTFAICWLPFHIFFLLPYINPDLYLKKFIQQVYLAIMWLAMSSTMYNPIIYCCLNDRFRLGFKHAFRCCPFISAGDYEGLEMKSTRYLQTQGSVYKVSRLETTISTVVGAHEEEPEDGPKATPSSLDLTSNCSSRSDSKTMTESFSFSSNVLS
Procedure: Thus ligand binding was performed in 0.4 ml of 50 mM HEPES, pH 7.4, containing 3 mM MnCl2, 0.02% BSA, 0.5 nM [^3H]Substance P (30+56 Ci/mmol, Amersham), a final membrane concentration of 25 μg of protein/ml, and the test compounds. The incubation proceeded at room temperature for 40 min.
The affinity of the compound of the invention for NK1 receptor was determined using the NK1-receptor binding affinity method measuring in vitro by the compounds' ability to displace [3H]—substance P (SP) from recombinant human NK1 receptors expressed in Chinese Hamster Ovary (CHO) cell membranes. The affinity values are expressed as negative logarithm of the inhibition constant (Ki) of displacer ligands (pKi).

nk1 receptor = target: T2, nk1 receptor (Meriones unguiculatus, UniProt Q5DUB1); assay: gerbil foot tapping model (hind foot tapping induced by icv NK1 agonist); type: in vivo; settings: oral administration, one hour before icv NK1 agonist; dose inhibiting tapping by 50%
T2 construct: from tissue; host or cells: living gerbil, central NK1 receptors (agonist infused icv)
T2 sequence (Q5DUB1 whole entry, the tested form may be a part): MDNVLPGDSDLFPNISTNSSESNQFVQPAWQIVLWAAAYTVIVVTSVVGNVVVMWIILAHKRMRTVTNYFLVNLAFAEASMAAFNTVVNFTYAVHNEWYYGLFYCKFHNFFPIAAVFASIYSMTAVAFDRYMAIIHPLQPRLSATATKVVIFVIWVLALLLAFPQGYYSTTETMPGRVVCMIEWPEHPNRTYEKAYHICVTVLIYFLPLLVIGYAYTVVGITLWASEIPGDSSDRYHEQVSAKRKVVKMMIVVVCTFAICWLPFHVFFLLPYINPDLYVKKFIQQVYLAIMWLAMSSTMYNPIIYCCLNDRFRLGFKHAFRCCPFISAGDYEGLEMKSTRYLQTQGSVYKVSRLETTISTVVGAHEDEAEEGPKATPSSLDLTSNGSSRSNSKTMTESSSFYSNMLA
Procedure: The action of the compounds of the invention at the NK1 receptor may be determined by using conventional tests. Thus the ability to bind at the NK1 receptor was determined using the gerbil foot tapping model as described by Rupniak & Williams, Eur. J. of Pharmacol., 1994.
The ability of the compounds of the invention at the nk1 receptor may be determined using the gerbil foot tapping model as described by Rupniak & Williams, Eur. Jour. of Pharmacol., 1994.
The compound was administered orally and one hour later an NK1 agonist (e.g. delta-Aminovaleryl^6[Pro^9,Me-Leu^10]-substance P (7-11)) (3 pmol in 5 μL, icv) was infused directly in the cerebral ventricules of the animals. The duration of hind foot tapping induced by the NK1 agonist (e.g. delta-Aminovaleryl^6[Pro^9,Me-Leu^10]-substance P (7-11)) was recorded continuously for 3 min using a stopclock. […] Alternatively the compounds may be administered subcutaneously or intraperitoneally.

Row | Structure (SMILES) | Ki [1] | ED50(mg/kg po) (nk1 receptor) | melting point
1 | Cc1cc(F)ccc1C1CNCCN1C(=O)N(C)C(c1cc(C(F)(F)F)cc(C(F)(F)F)c1)C(C)C (single isomer, unassigned) [Example 32, 2-(4-Fluoro-2-methyl-phenyl)-piperazine-1-carboxylic acid [1-(3,5-bis-trifluoromethyl-phenyl)-2-methyl-propyl]-methyl-amide hydrochloride] | 1.02 nM | – | –
2 | Cc1cc(F)ccc1C1CNCCN1C(=O)N1CC=CCC1c1cc(C(F)(F)F)cc(C(F)(F)F)c1 (single isomer, unassigned) [Example 28, hydrochloride] | 0.49 nM | – | –
3 | CN(Cc1cc(C(F)(F)F)cc(C(F)(F)F)c1)C(=O)N1CCNCC1c1ccc(F)cc1 (stereo not drawn) [Example 12, hydrochloride] | 2 nM | – | –
4 | CC(=O)O.Cc1cc(F)ccc1[C@H]1CNCCN1C(=O)N(C)[C@@H](C)c1cc(C(F)(F)F)cc(C(F)(F)F)c1 [Example 19, 2-(S)-(4-Fluoro-2-methyl-phenyl)-piperazine-1-carboxylic acid [1-(S)-(3,5-bis-trifluoromethyl-phenyl)-ethyl]-methyl-amide acetate] | – | 0.04 mg/kg | –
5 | Cc1cc(F)ccc1C1CNCCN1C(=O)N(C)Cc1cc(C(F)(F)F)cc(C(F)(F)F)c1.Cl (stereo not drawn) [Example 1, 2-(4-Fluoro-2-methyl-phenyl)-piperazine-1carboxylic acid (3,5-bistrifluoromethyl-benzyl)-methyl-amide hydrochloride] | 1.07 nM | – | > 220 °C
6 | Cc1cc(F)ccc1[C@H]1CNCCN1C(=O)N(C)Cc1cc(C(F)(F)F)cc(C(F)(F)F)c1 [Example 8, (−)-2-(S)-(4-Fluoro-2-methyl-phenyl)-piperazine-1-carboxylic acid (3,5-bis-trifluoromethyl-benzyl)-methyl-amide hydrochloride] | 0.427 nM | – | –
7 | Cc1cc(F)ccc1[C@H]1CNCCN1C(=O)N(C)C1(c2cc(C(F)(F)F)cc(C(F)(F)F)c2)CC1 [Example 25, 2-(S)-(4-Fluoro-2-methyl-phenyl)-piperazine-1-carboxylic acid [1-3,5-bis-trifluoromethyl-phenyl)-cyclopropyl]-methyl-amide hydrochloride] | 0.479 nM | – | –
8 | Cc1cc(F)ccc1C1CNCCN1C(=O)N(C)C(c1cc(C(F)(F)F)cc(C(F)(F)F)c1)C1CC1 (single isomer, unassigned) [Example 34, 2(4-Fluoro-2-methyl-phenyl)-piperazine-1-carboxylic acid [(3,5-bis-trifluoromethyl-phenyl)-cyclopropyl-methyl]-methyl-amide hydrochloride] | 0.794 nM | – | –
9 | CN(Cc1cc(C(F)(F)F)cc(C(F)(F)F)c1)C(=O)N1CCNCC1c1ccc(F)cc1F.Cl (stereo not drawn) [Example 5, 2-(2,4-Difluoro-phenyl)-piperazine-1-carboxylic acid (3,5-bis-trifluoromethyl-benzyl)-methyl-amide hydrochloride] | 2.14 nM | – | 220 to 230 °C
10 | CC(C)c1cccc(C2CNCCN2C(=O)N(C)Cc2cc(C(F)(F)F)cc(C(F)(F)F)c2)c1.Cl (stereo not drawn) | – | – | 77 to 80 °C
11 | Cc1cc(C2CNCCN2C(=O)N(C)Cc2cc(C(F)(F)F)cc(C(F)(F)F)c2)ccc1F.Cl (stereo not drawn) [Example 4, 2(4-Fluoro-3-methyl-phenyl)-piperazine-1-carboxylic acid (3,5-bis-trifluoromethyl-benzyl)-methyl-amide hydrochloride] | 4.37 nM | – | 70 to 72 °C
12 | CN(Cc1ccc(C(F)(F)F)c(C(F)(F)F)c1)C(=O)N1CCNCC1c1ccc(F)cc1.Cl (stereo not drawn) [Example 12] | – | – | > 200 °C
13 | Cc1cc(F)ccc1C1CNCC(C)N1C(=O)N(C)Cc1cc(C(F)(F)F)cc(C(F)(F)F)c1.Cl (stereo not drawn) [Example 24, 2-(2-Methyl-4-fluoro-phenyl)-6-methyl-piperazine-1-carboxylic acid (3,5-bis-trifluoromethyl-benzyl)-methyl-amide hydrochloride salt] | 0.661 nM | – | > 200 °C
14 | Cc1cc(F)ccc1[C@H]1CN(CCN)CCN1C(=O)N(C)Cc1cc(C(F)(F)F)cc(C(F)(F)F)c1 [Example 22, 4(2-Aminoethyl)-2-(S)-(4-fluoro-2-methyl-phenyl)-piperazine-1-carboxylic acid (3,5-bis-trifluoromethyl-benzyl)-methyl-amide dihydrochloride Salt] | 0.407 nM | – | –
15 | CS(=O)(=O)O.Cc1cc(F)ccc1[C@H]1CNCCN1C(=O)N(C)[C@H](C)c1cc(C(F)(F)F)cc(C(F)(F)F)c1 [Example 36, 2(S)-(4-Fluoro-2-methyl-phenyl)-piperazine-1-carboxylic acid [1-(R)-(3,5-bis-trifluoromethyl-phenyl)-ethyl]-methyl-amide methansulphonate] | – | 0.05 mg/kg | –
16 | Cc1cc(F)ccc1C1C(C)NCCN1C(=O)N(C)Cc1cc(C(F)(F)F)cc(C(F)(F)F)c1 (stereo not drawn) [Example 23, 2-(4-Fluoro-2-methyl-phenyl)-3-methyl-piperazine-1-carboxylic acid (3,5-bis-trifluoromethyl-benzyl)-methyl-amide hydrochloride salt] | 0.479 nM | – | –
17 | C=CCC(c1cc(C(F)(F)F)cc(C(F)(F)F)c1)N(C)C(=O)N1CCNCC1c1ccc(F)cc1C (single isomer, unassigned) [Example 30, 2-(4-Fluoro-2-methyl-phenyl)-piperazine-1-carboxylic acid [1-(3,5-bis-trifluoromethyl-phenyl)-but-3-enyl]-methyl-amide hydrochloride] | 1.66 nM | – | –
18 | Cc1cc(F)ccc1[C@H]1CN(C(=O)CN)CCN1C(=O)N(C)Cc1cc(C(F)(F)F)cc(C(F)(F)F)c1.Cl [Example 20, 4-(2-Amino-acetyl)-2-(S)-(4-fluoro-2-methyl-phenyl)-piperazine-1-carboxylic acid (3,5-bis-trifluoromethyl-benzyl)-methyl-amide hydrochloride] | 0.347 nM | 0.065 mg/kg | –
19 | Cc1cc(F)ccc1[C@H]1CNCCN1C(=O)N(C)C(C)(C)c1cc(C(F)(F)F)cc(C(F)(F)F)c1.Cl [Example 21, 2-(S)-(4-Fluoro-2-methyl-phenyl)-piperazine-1-carboxylic acid [1-(3,5-bis-trifluoromethyl-phenyl)-1-methyl-ethyl]-methyl-amide hydrochloride] | 1.12 nM | 0.4 mg/kg | –
20 | Cc1cc(F)ccc1[C@H]1CNCCN1C(=O)N1CCCCC1c1cc(C(F)(F)F)cc(C(F)(F)F)c1 (single isomer, unassigned) [Example 29, hydrochloride] | 1.35 nM | – | –
21 | CN(Cc1cc(C(F)(F)F)cc(C(F)(F)F)c1)C(=O)N1CCNCC1c1ccc(Cl)cc1Cl (stereo not drawn) [Example 14, 2-(2,4-Dichloro-phenyl)-piperazine-1-carboxylic acid (3,5-bistrifluoro methyl-benzyl)-methyl-amide hydrochloride] | 2 nM | – | –
